Read-outs that look alike come from different tables or passages of the source.
Biological target: human kinase Mps-1 (Homo sapiens (Human), UniProt P33981)
Assay: Mps-1 kinase assay (TR-FRET)
Assay type: biochemical
Method: The human kinase Mps-1 phosphorylates a biotinylated substrate peptide. Detection of the phosphorylated product is achieved by time-resolved fluorescence resonance energy transfer (TR-FRET) from Europium-labelled anti-phospho-Serine/Threonine antibody as donor to streptavidin labelled with cross-linked allophycocyanin (SA-XLent) as acceptor. Compounds are tested for their inhibition of the kinase activity.
N-terminally GST-tagged human full length recombinant Mps-1 kinase (purchased from Invitrogen, Karslruhe, Germany, cat. no PV4071) was used. As substrate for the kinase reaction a biotinylated peptide of the amino-acid sequence […] (C-terminus in amide form, purchased from Biosynthan GmbH, Berlin) was used.
The concentration of Mps-1 in the assay was adjusted to the activity of the enzyme lot and was chosen appropriate to have the assay in the linear range, typical enzyme concentrations were in the range of about 1 nM (final conc. in the 5 μl assay volume).
The resulting mixture was incubated 1 h at 22° C. to allow the binding of the phosphorylated peptide to the anti-phospho(Ser/Thr)-Europium-antibody. Subsequently the amount of phosphorylated substrate was evaluated by measurement of the resonance energy transfer from the Europium-labelled anti-phospho(Ser/Thr) antibody to the Streptavidin-XLent.

[1] = N-terminally GST-tagged human full length recombinant Mps-1, 10 μM ATP, 1 μM biotinylated peptide substrate, read-out: Mps1 IC50

Sequence of human kinase Mps-1 (P33981 whole entry): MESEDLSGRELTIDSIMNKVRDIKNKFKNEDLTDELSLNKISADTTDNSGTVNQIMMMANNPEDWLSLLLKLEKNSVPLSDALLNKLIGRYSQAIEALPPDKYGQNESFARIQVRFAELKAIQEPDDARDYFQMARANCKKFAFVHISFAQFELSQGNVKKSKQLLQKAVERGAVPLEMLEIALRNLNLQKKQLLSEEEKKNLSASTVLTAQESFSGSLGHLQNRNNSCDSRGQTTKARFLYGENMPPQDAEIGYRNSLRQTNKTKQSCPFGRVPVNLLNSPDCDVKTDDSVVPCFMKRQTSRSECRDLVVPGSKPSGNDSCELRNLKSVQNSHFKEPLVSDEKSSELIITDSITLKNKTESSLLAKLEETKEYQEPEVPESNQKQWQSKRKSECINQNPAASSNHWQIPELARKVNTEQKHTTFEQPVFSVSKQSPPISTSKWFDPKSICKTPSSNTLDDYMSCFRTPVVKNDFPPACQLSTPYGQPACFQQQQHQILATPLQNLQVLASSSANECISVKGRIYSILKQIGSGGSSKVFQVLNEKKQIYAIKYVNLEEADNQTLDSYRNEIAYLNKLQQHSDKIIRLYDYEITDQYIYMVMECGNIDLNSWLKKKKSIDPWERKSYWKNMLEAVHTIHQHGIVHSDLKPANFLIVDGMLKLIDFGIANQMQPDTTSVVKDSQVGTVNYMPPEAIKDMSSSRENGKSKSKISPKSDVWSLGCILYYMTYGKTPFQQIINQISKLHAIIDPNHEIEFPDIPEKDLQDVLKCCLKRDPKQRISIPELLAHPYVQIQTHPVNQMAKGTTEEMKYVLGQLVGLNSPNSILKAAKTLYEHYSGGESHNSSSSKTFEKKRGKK

`CCNC(=O)c1ccc(-n2cnc3c(NCC4CCOCC4)cc(Oc4ccc(O)cc4F)cc32)cc1C` [Example 117A, N-ethyl-4-{6-(2-fluoro-4-hydroxyphenoxy)-4-[(tetrahydro-2H-pyran-4-ylmethyl)amino]-1H-benzimidazol-1-yl}-2-methylbenzamide] gave an IC50 [1] of 6.7 nM.
`COc1cc(C#N)ccc1Oc1cc(NCCC(F)(F)F)c2ncn(-c3ccc(C(=O)NC4CC4)c(C)c3)c2c1` [Example 73, 4-{6-(4-cyano-2-methoxyphenoxy)-4-[(3,3,3-trifluoropropyl)amino]-1H-benzimidazol-1-yl}-N-cyclopropyl-2-methylbenzamide] showed an IC50 [1] of 52.2 nM.
`CCNC(=O)c1ccc(-n2cnc3c(NCC4CCOCC4)cc(Oc4ccc(OC)c(F)c4)cc32)cc1C` [Example 43, N-ethyl-4-{6-(3-fluoro-4-methoxyphenoxy)-4-[(tetrahydro-2H-pyran-4-ylmethyl)amino]-1H-benzimidazol-1-yl}-2-methylbenzamide] gave an IC50 [1] of 4 nM.
Compound `Cc1cc(-n2cnc3c(NCCC(F)(F)F)cc(Oc4ccc(O)cc4)cc32)ccc1C(=O)NC1CC1` [Example 50, N-cyclopropyl-4-{6-(4-hydroxyphenoxy)-4-[(3,3,3-trifluoropropyl)amino]-1H-benzimidazol-1-yl}-2-methylbenzamide] has an IC50 [1] of 1.1 nM.
In the case of `Cc1cc(-n2cnc3c(NCCC(F)(F)F)cc(Oc4cccc(S(C)(=O)=O)c4)cc32)ccc1C(=O)NC1CC1` [Example 64, N-cyclopropyl-2-methyl-4-{6-[3-(methylsulfonyl)phenoxy]-4-[(3,3,3-trifluoropropyl)amino]-1H-benzimidazol-1-yl}benzamide], the IC50 [1] is reported as 2.6 nM.
With `COc1ccc(C(=O)c2cc(NCCC(F)(F)F)c3ncn(-c4ccc(C(=O)NC5CC5)c(C)c4)c3c2)cc1F` [Example 101, N-cyclopropyl-4-{6-(3-fluoro-4-methoxybenzoyl)-4-[(3,3,3-trifluoropropyl)amino]-1H-benzimidazol-1-yl}-2-methylbenzamide] the IC50 [1] was 6.4 nM.
`CNC(=O)c1ccc(-n2cnc3c(NCCC(F)(F)F)cc(Oc4ccc(OC)cc4F)cc32)cc1C` [Example 88, 4-{6-(2-fluoro-4-methoxyphenoxy)-4-[(3,3,3-trifluoropropyl)amino]-1H-benzimidazol-1-yl}-N,2-dimethylbenzamide] gave an IC50 [1] of 6.7 nM.
With `Cc1cc(-n2cnc3c(NCCC(F)(F)F)cc(Oc4ccc(F)c(F)c4)cc32)ccc1C(=O)NC1CC1` [Example 27, N-cyclopropyl-4-{6-(3,4-difluorophenoxy)-4-[(3,3,3-trifluoropropyl)amino]-1H-benzimidazol-1-yl}-2-methylbenzamide] the IC50 [1] was 1.4 nM.
With `COc1ccccc1Oc1cc(NCCC(F)(F)F)c2ncn(-c3ccc(C(=O)NC4CC4)c(C)c3)c2c1` [Example 41, N-cyclopropyl-4-{6-(2-methoxyphenoxy)-4-[(3,3,3-trifluoropropyl)amino]-1H-benzimidazol-1-yl}-2-methylbenzamide] the IC50 [1] was 10.1 nM.
With `CNC(=O)c1ccc(-n2cnc3c(NCCC(F)(F)F)cc(Oc4cccc(OC)c4)cc32)cc1C` [Example 68, 4-{6-(3-methoxyphenoxy)-4-[(3,3,3-trifluoropropyl)amino]-1H-benzimidazol-1-yl}-N, 2-dimethylbenzamide] the IC50 [1] was 8.8 nM.
With `CNC(=O)c1ccc(-n2cnc3c(NCCC(F)(F)F)cc(Oc4ccccc4O)cc32)cc1C` [Example 56, 4-{6-(2-hydroxyphenoxy)-4-[(3,3,3-trifluoropropyl)amino]-1H-benzimidazol-1-yl}-N,2-dimethylbenzamide] the IC50 [1] was 0.3 nM.
For `Cc1cc(-n2cnc3c(NCC4CCOCC4)cc(Oc4ccc(F)c(F)c4)cc32)ccc1C(=O)NC1CC1` [Example 17, N-cyclopropyl-4-{6-(3,4-difluorophenoxy)-4-[(tetrahydro-2H-pyran-4-ylmethyl)amino]-1H-benzimidazol-1-yl}-2-methylbenzamide], the IC50 [1] was 1.1 nM.
In the case of `COc1cccc(Oc2cc(NCCC(F)(F)F)c3ncn(-c4ccc(C(=O)NC5CC5)c(C)c4)c3c2)c1` [Example 70, N-cyclopropyl-4-{6-(3-methoxyphenoxy)-4-[(3,3,3-trifluoropropyl)amino]-1H-benzimidazol-1-yl}-2-methylbenzamide], the IC50 [1] is reported as 2 nM.
`CCNC(=O)c1ccc(-n2cnc3c(NCCC(F)(F)F)cc(Oc4ccc(OC)cc4F)cc32)cc1C` [Example 89, N-ethyl-4-{6-(2-fluoro-4-methoxyphenoxy)-4-[(3,3,3-trifluoropropyl)amino]-1H-benzimidazol-1-yl}-2-methylbenzamide] showed an IC50 [1] of 10.8 nM.
`CNC(=O)c1ccc(-n2cnc3c(NCCC(F)(F)F)cc(Oc4ccc(OCc5ccccc5)cc4)cc32)cc1C` [Example 47, 4-{6-[4-(Benzyloxy)phenoxy]-4-[(3,3,3-trifluoropropyl)amino]-1H-benzimidazol-1-yl}-N,2-dimethylbenzamide] gave an IC50 [1] of 100 nM.
`CNC(=O)c1ccc(-n2cnc3c(NCC4CCOCC4)cc(Oc4ccc(OC)cc4F)cc32)cc1C` [Example 86, 4-{6-(2-fluoro-4-methoxyphenoxy)-4-[(tetrahydro-2H-pyran-4-ylmethyl)amino]-1H-benzimidazol-1-yl}-N,2-dimethylbenzamide] gave an IC50 [1] of 7 nM.
`CNC(=O)c1ccc(-n2cnc3c(NCCC(F)(F)F)cc(Oc4cccc(F)c4F)cc32)cc1C` [Example 67, 4-{6-(2,3-difluorophenoxy)-4-[(3,3,3-trifluoropropyl)amino]-1H-benzimidazol-1-yl}-N,2-dimethylbenzamide] gave an IC50 [1] of 1 nM.
`COc1c(F)cccc1Oc1cc(NCCC(F)(F)F)c2ncn(-c3ccc(C(=O)NC4CC4)c(C)c3)c2c1` [Example 57, N-cyclopropyl-4-{6-(3-fluoro-2-methoxyphenoxy)-4-[(3,3,3-trifluoropropyl)amino]-1H-benzimidazol-1-yl}-2-methylbenzamide] was tested, and the IC50 [1] was 6.8 nM.
`CCNC(=O)c1ccc(-n2cnc3c(NCCC(F)(F)F)cc(Oc4cccc(F)c4)cc32)cc1C` [Example 11, N-ethyl-4-{6-(3-fluorophenoxy)-4-[(3,3,3-trifluoropropyl)amino]-1H-benzimidazol-1-yl}-2-methylbenzamide] showed an IC50 [1] of 6.6 nM.
Work on `CCNC(=O)c1ccc(-n2cnc3c(NCC4CCOCC4)cc(Oc4cccc(F)c4F)cc32)cc1C` [Example 85, 4-{6-(2,3-Difluorophenoxy)-4-[(tetrahydro-2H-pyran-4-ylmethyl)amino]-1H-benzimidazol-1-yl}-N-ethyl-2-methylbenzamide] yielded an IC50 [1] of 3.3 nM.
`Cc1cc(-n2cnc3c(NCCC(F)(F)F)cc(Oc4ccccc4O)cc32)ccc1C(=O)NC1CC1` [Example 54, N-cyclopropyl-4-{6-(2-hydroxyphenoxy)-4-[(3,3,3-trifluoropropyl)amino]-1H-benzimidazol-1-yl}-2-methylbenzamide] was tested, and the IC50 [1] was 0.2 nM.
Compound `CCNC(=O)c1ccc(-n2cnc3c(NCCC(F)(F)F)cc(Oc4ccccc4O)cc32)cc1C` [Example 55, N-ethyl-4-{6-(2-hydroxyphenoxy)-4-[(3,3,3-trifluoropropyl)amino]-1H-benzimidazol-1-yl}-2-methylbenzamide] has an IC50 [1] of 0.7 nM.
`COc1ccccc1Nc1cc(NCCC(F)(F)F)c2ncn(-c3ccc(C(=O)NC4CC4)c(C)c3)c2c1` [Example 63, N-cyclopropyl-4-{6-[(2-methoxyphenyl)amino]-4-[(3,3,3-trifluoropropyl)amino]-1H-benzimidazol-1-yl}-2-methylbenzamide] gave an IC50 [1] of 18.9 nM.
Compound `COc1ccc(Oc2cc(NCCC(F)(F)F)c3ncn(-c4ccc(C(=O)NC5CC5)c(C)c4)c3c2)cc1F` [Example 33, N-cyclopropyl-4-{6-(3-fluoro-4-methoxyphenoxy)-4-[(3,3,3-trifluoropropyl)amino]-1H-benzimidazol-1-yl}-2-methylbenzamide] has an IC50 [1] of 0.7 nM.
`Cc1cc(-n2cnc3c(NCCC(F)(F)F)cc(Oc4cccc(F)c4)cc32)ccc1C(=O)NC1(C)CC1` [Example 12, 4-{6-(3-Fluorophenoxy)-4-[(3,3,3-trifluoropropyl)amino]-1H-benzimidazol-1-yl}-2-methyl-N-(1-methylcyclopropyl)benzamide] showed an IC50 [1] of 15.3 nM.
For `CC(C)CNc1cc(Br)cc2c1ncn2-c1ccc(C(=O)NC2CC2)cc1` [Example 6, 4-{6-bromo-4-[(2-methylpropyl)amino]-1H-benzimidazol-1-yl}-N-cyclopropylbenzamide], the IC50 [1] was 16.6 nM.
`O=C(NC1CC1)c1ccc(-n2cnc3c(NCCC(F)(F)F)cc(Oc4cccc(F)c4F)cc32)cc1` [Example 36, N-cyclopropyl-4-{6-(2,3-difluorophenoxy)-4-[(3,3,3-trifluoropropyl)amino]-1H-benzimidazol-1-yl}benzamide] was tested, and the IC50 was 0.4 nM.
`CNC(=O)c1ccc(-n2cnc3c(NCCC(F)(F)F)cc(Oc4cccc(F)c4)cc32)cc1C` [Example 10, 4-{6-(3-Fluorophenoxy)-4-[(3,3,3-trifluoropropyl)amino]-1H-benzimidazol-1-yl}-N,2-dimethylbenzamide] gave an IC50 [1] of 4.7 nM.
In the case of `Cc1cc(-n2cnc3c(NCC4CCOCC4)cc(Oc4cccc(F)c4F)cc32)ccc1C(=O)NC1CC1` [Example 25, N-cyclopropyl-4-{6-(2,3-difluorophenoxy)-4-[(tetrahydro-2H-pyran-4-ylmethyl)amino]-1H-benzimidazol-1-yl}-2-methylbenzamide], the IC50 [1] is reported as 0.2 nM.
Compound `CNC(=O)c1ccc(-n2cnc3c(NCCC(F)(F)F)cc(Oc4ccccc4OC)cc32)cc1C` [Example 39, 4-{6-(2-Methoxyphenoxy)-4-[(3,3,3-trifluoropropyl)amino]-1H-benzimidazol-1-yl}-N, 2-dimethylbenzamide] has an IC50 [1] of 43.3 nM.
